Reference: patent US20120309823A1, “PERCUTANEOUS ABSORPTION PREPARATIONS” (priority 1999, published 2012)

CC(=O)NCC[C@@H]1CCc2ccc3c(c21)CCO3
melting point: 118 to 120 °C
